From US20230312481A1, “SUBSTITUTED (PHTHALAZIN-1-YLMETHYL)UREAS, SUBSTITUTED N-(PHTHALAZIN-1-YLMETHYL)AMIDES, AND ANALOGUES THEREOF” (priority 2020, published 2023)
Where two headings read alike, the source gives them in different places.

Test system: HBV rcDNA in HepDE19 cells
Assay: HepDE19 assay with bDNA quantitation of HBV rcDNA
Format: cell-based, hepatitis B virus
Conditions: read-out: DE-19bDNA EC50
Description: HepDE19 Assay With bDNA Quantitation of HBV rcDNA
HepDE19 (50,000 cells/well) were plated in 96-well collagen-coated tissue-culture treated microtiter plates in DMEM/F12 medium supplemented with 10% fetal bovine serum, 1% penicillin-streptomycin and 1 µg/mL tetracycline and incubated in a humidified incubator at 37° C. and 5% CO2 overnight. Next day, the cells were switched to fresh medium without tetracycline and incubated for 4 hours at 37° C. and 5% CO2. […] The final DMSO concentration in the assay was 0.5%. The plates were incubated for 7 days in a humidified incubator at 37° C. and 5% CO2. Following a 7 day-incubation, the level of rcDNA present in the inhibitor-treated wells was measured using a Quantigene 2.0 bDNA assay kit (Affymetrix, Santa Clara, CA) with HBV specific custom probe set and manufacturers instructions. Concurrently, the effect of compounds on cell viability was assessed using replicate plates, plated at a density of 5,000 cells/well and incubated for 4 days, to determine the ATP content as a measure of cell viability using the cell-titer glo reagent (CTG; Promega Corporation, Madison, WI) as per manufacturer’s instructions.
Representative compounds of the disclosure were tested for their abilities to inhibit formation of relaxed circular DNA (rcDNA) in a HepDE19 assay, as described elsewhere herein.

[1] = HepDE19 cells, 7 day incubation, rcDNA measured by Quantigene 2.0 bDNA assay, top concentration 25 µM

SMILES	EC50 (Hepatitis B virus, HepDE19, 168 h) [µM]	EC50 [1] [µM]
CC(C)CN(C(=O)Nc1ccccc1)C(C)c1n[nH]c(=O)c2cc(F)c(F)cc12 (single isomer, unassigned) [Compound 39, 1-(1-(6,7-difluoro-4-oxo-3,4-dihydrophthalazin-1-yl)ethyl)-1-isobutyl-3-phenylurea]	3.7	
CC(c1n[nH]c(=O)c2cc(F)c(F)cc12)N(C)C(=O)c1cc2sccc2[nH]1 (single isomer, unassigned) [Compound 80, N-(1-(6,7-difluoro-4-oxo-3,4-dihydrophthalazin-1-yl)ethyl)-N-methyl-4H-thieno[3,2-b]pyrrole-5-carboxamide]		14.1
CC(c1n[nH]c(=O)c2cc(F)c(F)cc12)N(C)C(=O)c1cc2sccc2[nH]1 (single isomer, unassigned) [Compound 81, N-(1-(6,7-difluoro-4-oxo-3,4-dihydrophthalazin-1-yl)ethyl)-N-methyl-4H-thieno[3,2-b]pyrrole-5-carboxamide]		0.11
CC(c1n[nH]c(=O)c2cc(F)c(F)cc12)N(C)C(=O)c1ccc2c(c1)CCC2 (single isomer, unassigned) [Compound 82, N-(1-(6,7-difluoro-4-oxo-3,4-dihydrophthalazin-1-yl)ethyl)-N-methyl-2,3-dihydro-1H-indene-5-carboxamide]		9.01
CC(c1n[nH]c(=O)c2cc(F)c(F)cc12)N(C)C(=O)c1ccc2c(c1)CCC2 (single isomer, unassigned) [Compound 83, N-(1-(6,7-difluoro-4-oxo-3,4-dihydrophthalazin-1-yl)ethyl)-N-methyl-2,3-dihydro-1H-indene-5-carboxamide]		0.08
CC(c1n[nH]c(=O)c2cc(F)c(F)cc12)N(C)C(=O)c1ccc2scnc2c1 (single isomer, unassigned) [Compound 84, N-(1-(6,7-difluoro-4-oxo-3,4-dihydrophthalazin-1-yl)ethyl)-N-methylbenzo[d]thiazole-5-carboxamide]		> 25
CC(c1n[nH]c(=O)c2cc(F)c(F)cc12)N(C)C(=O)c1ccc2scnc2c1 (single isomer, unassigned) [Compound 85, N-(1-(6,7-difluoro-4-oxo-3,4-dihydrophthalazin-1-yl)ethyl)-N-methylbenzo[d]thiazole-5-carboxamide]		2.22
CC(c1n[nH]c(=O)c2cc(F)c(F)cc12)N(C)C(=O)c1ccc2ncsc2c1 (single isomer, unassigned) [Compound 86, N-(1-(6,7-difluoro-4-oxo-3,4-dihydrophthalazin-l-yl)ethyl)-N-methylbenzo[d]thiazole-6-carboxamide]		≥ 25
CC(c1n[nH]c(=O)c2cc(F)c(F)cc12)N(C)C(=O)c1ccc2ncsc2c1 (single isomer, unassigned) [Compound 87, N-(1-(6,7-difluoro-4-oxo-3,4-dihydrophthalazin-l-yl)ethyl)-N-methylbenzo[d]thiazole-6-carboxamide]		5.57
CC(c1n[nH]c(=O)c2cc(F)c(F)cc12)N(C)C(=O)c1ccc2ocnc2c1 (single isomer, unassigned) [Compound 88, N-(1-(6,7-difluoro-4-oxo-3,4-dihydrophthalazin-1-yl)ethyl)-N-methylbenzo[d]oxazole-5-carboxamide]		> 25
CC(c1n[nH]c(=O)c2cc(F)c(F)cc12)N(C)C(=O)c1ccc2ocnc2c1 (single isomer, unassigned) [Compound 89, N-(1-(6,7-difluoro-4-oxo-3,4-dihydrophthalazin-1-yl)ethyl)-N-methylbenzo[d]oxazole-5-carboxamide]		2.42
CC(c1n[nH]c(=O)c2cc(F)c(F)cc12)N(C)C(=O)c1ccc2ncoc2c1 (single isomer, unassigned) [Compound 90, N-(1-(6,7-difluoro-4-oxo-3,4-dihydrophthalazin-1-yl)ethyl)-N-methylbenzo[d]oxazole-6-carboxamide]		> 25
CC(c1n[nH]c(=O)c2cc(F)c(F)cc12)N(C)C(=O)c1ccc2ncoc2c1 (single isomer, unassigned) [Compound 91, N-(1-(6,7-difluoro-4-oxo-3,4-dihydrophthalazin-1-yl)ethyl)-N-methylbenzo[d]oxazole-6-carboxamide]		3.86
CC(c1n[nH]c(=O)c2cc(F)c(F)cc12)N(C)C(=O)c1cnc(C(F)(F)F)c(Cl)c1 (single isomer, unassigned) [Compound 92, 5-chloro-N-(1-(6,7-difluoro-4-oxo-3,4-dihydrophthalazin-1-yl)ethyl)-N-methyl-6-(trifluoromethyl)nicotinamide]		> 25
CC(c1n[nH]c(=O)c2cc(F)c(F)cc12)N(C)C(=O)c1cnc(C(F)(F)F)c(Cl)c1 (single isomer, unassigned) [Compound 93, 5-chloro-N-(1-(6,7-difluoro-4-oxo-3,4-dihydrophthalazin-1-yl)ethyl)-N-methyl-6-(trifluoromethyl)nicotinamide]		1.66
CC(c1n[nH]c(=O)c2cc(F)c(F)cc12)N(C)C(=O)c1cc(F)c(Cl)c(F)c1 (single isomer, unassigned) [Compound 94, 4-chloro-N-(1-(6,7-difluoro-4-oxo-3,4-dihydrophthalazin-1-yl)ethyl)-3,5-difluoro-N-methylbenzamide]		13.3
CC(c1n[nH]c(=O)c2cc(F)c(F)cc12)N(C)C(=O)c1cc(F)c(Cl)c(F)c1 (single isomer, unassigned) [Compound 95, 4-chloro-N-(1-(6,7-difluoro-4-oxo-3,4-dihydrophthalazin-1-yl)ethyl)-3,5-difluoro-N-methylbenzamide]		0.08
CC(c1n[nH]c(=O)c2cc(F)c(F)cc12)N(C)C(=O)c1cc2c(C(F)F)cc(F)cc2[nH]1 (single isomer, unassigned) [Compound 96, N-(1-(6,7-difluoro-4-oxo-3,4-dihydrophthalazin-1-yl)ethyl)-4-(difluoromethyl)-6-fluoro-N-methyl-1H-indole-2-carboxamide]		2.52
CC(c1n[nH]c(=O)c2cc(F)c(F)cc12)N(C)C(=O)c1cc2c(C(F)F)cc(F)cc2[nH]1 (single isomer, unassigned) [Compound 97, N-(1-(6,7-difluoro-4-oxo-3,4-dihydrophthalazin-1-yl)ethyl)-4-(difluoromethyl)-6-fluoro-N-methyl-1H-indole-2-carboxamide]		0.02
CC(c1n[nH]c(=O)c2cc(F)c(F)cc12)N(C)C(=O)c1cc2c(C(F)F)cccn2c1 (single isomer, unassigned) [Compound 98, N-(1-(6,7-difluoro-4-oxo-3,4-dihydrophthalazin-1-yl)ethyl)-8-(difluoromethyl)-N-methylindolizine-2-carboxamide]		7.44
CC(c1n[nH]c(=O)c2cc(F)c(F)cc12)N(C)C(=O)c1cc2c(C(F)F)cccn2c1 (single isomer, unassigned) [Compound 99, N-(1-(6,7-difluoro-4-oxo-3,4-dihydrophthalazin-1-yl)ethyl)-8-(difluoromethyl)-N-methylindolizine-2-carboxamide]		0.01
CC(c1n[nH]c(=O)c2cc(F)c(F)cc12)N(C)C(=O)c1cc(F)c(Br)c(F)c1 (single isomer, unassigned) [Compound 100, 4-bromo-N-(1-(6,7-difluoro-4-oxo-3,4-dihydrophthalazin-1-yl)ethyl)-3,5-difluoro-N-methylbenzamide]		4.69
CC(c1n[nH]c(=O)c2cc(F)c(F)cc12)N(C)C(=O)c1cc(F)c(Br)c(F)c1 (single isomer, unassigned) [Compound 101, 4-bromo-N-(1-(6,7-difluoro-4-oxo-3,4-dihydrophthalazin-1-yl)ethyl)-3,5-difluoro-N-methylbenzamide]		0.05
CC(c1n[nH]c(=O)c2cc(F)c(F)cc12)N(C)C(=O)c1cc2sc(F)cc2[nH]1 (single isomer, unassigned) [Compound 102, N-(1-(6,7-difluoro-4-oxo-3,4-dihydrophthalazin-1-yl)ethyl)-2-fluoro-N-methyl-4H-thieno[3,2-b]pyrrole-5-carboxamide]		3.77
CC(c1n[nH]c(=O)c2cc(F)c(F)cc12)N(C)C(=O)c1cc2sc(F)cc2[nH]1 (single isomer, unassigned) [Compound 103, N-(1-(6,7-difluoro-4-oxo-3,4-dihydrophthalazin-1-yl)ethyl)-2-fluoro-N-methyl-4H-thieno[3,2-b]pyrrole-5-carboxamide]		0.06
CC(c1n[nH]c(=O)c2cc(F)c(F)cc12)N(C)C(=O)c1ccc2ccn(C)c2c1 (single isomer, unassigned) [Compound 104, N-(1-(6,7-difluoro-4-oxo-3,4-dihydrophthalazin-1-yl)ethyl)-N,1-dimethyl-1H-indole-6-carboxamide]		> 25
CC(c1n[nH]c(=O)c2cc(F)c(F)cc12)N(C)C(=O)c1ccc2ccn(C)c2c1 (single isomer, unassigned) [Compound 105, N-(1-(6,7-difluoro-4-oxo-3,4-dihydrophthalazin-1-yl)ethyl)-N,1-dimethyl-1H-indole-6-carboxamide]		1
CC(c1n[nH]c(=O)c2cc(F)c(F)cc12)N(C)C(=O)c1ccc2c(ccn2C)c1 (single isomer, unassigned) [Compound 106, N-(1-(6,7-difluoro-4-oxo-3,4-dihydrophthalazin-1-yl)ethyl)-N,1-dimethyl-1H-indole-5-carboxamide]		4.03
